Laboratory results from patent US20260071518A1, “SURFACTANT FOR CARBON DIOXIDE STORAGE” (TOTALENERGIES ONETECH, priority 2022, published 2026).

What was measured:
[1] = slim tube packed with sand, co-injection of carbon dioxide and surfactant-brine composition, apparent viscosity (Example 1); assay type: physicochemical; settings: 0.2 wt. % in 220 g/L NaCl brine, pH=6, 25° C., 150 bar, carbon dioxide fraction 50%, versus comparative surfactant compounds
Experimental: In this example, experiments were conducted within a slim tube packed with sand. The tube length was 25 cm, the tube diameter was 1 cm.
Various surfactant compositions were made by dissolving 0.2 wt. % of an individual surfactant compound in brine having a NaCl content of 220 g/L, buffered at pH=6 with a sodium acetate/acetic acid buffer.
Carbon dioxide and the surfactant-brine composition were co-injected into the slim tube via two separate inlets, at a temperature of 25° C. and at a pressure of 150 bar, with a total flow rate of 60 ft/day and a carbon dioxide fraction of 50%.
The pressure drop across the tube was measured and the apparent viscosity was calculated based on Darcy's law. Specifically, the apparent viscosity was obtained according to the following formula: (permeability×pressure gradient)/(volume flow/inlet area of the core (tube)).

[2] = carbonate core co-injection of carbon dioxide and surfactant-water composition, gas saturation and apparent viscosity (Example 4); assay type: physicochemical; settings: 0.2 wt. % in water, 110° C., 150 bar
Experimental: In this example, experiments were conducted using a carbonate core. The core was 30.1 cm long, having a diameter of 3.8 cm, a porosity of 28%, permeability of 130 md.
A surfactant-water composition was prepared by dissolving 0.2 wt. % of a surfactant compound (compound E of Example 1, N^1-dodecyl-N^3,N^3-dimethylpropane-1,3-diamine) in water.
Carbon dioxide and the surfactant-water composition were co-injected into the carbonate core via two separate inlets, at a temperature of 110° C. and at a pressure of 150 bar, with a total flow rate of 4 ft/day, varying the fraction of carbon dioxide from 50% to 95%. Carbon dioxide and water alone were also co-injected into the carbonate core under the same conditions.
The gas saturation in the core was measured by obtaining a mass balance between what is injected (water+CO2−pump control) and produced water measured by burette (volume) along with a scale (mass).
The apparent viscosity was calculated based on Darcy's law.

- rise in apparent viscosity [1]: quicker and higher rise in viscosity
- apparent viscosity of the resulting emulsion ([2]; CO2 fraction 50% to 95%, versus absence of surfactant): higher apparent viscosity
- change of apparent viscosity with CO2 fraction ([2]; CO2 fraction increased from 50 to 95%): decreased
- gas (CO2) saturation increase compared to absence of surfactant ([2]; at each CO2 fraction tested (50% to 95%)): 2-4 fold
Structure (SMILES): CCCCCCCCCCCCNCCCN(C)C [Compound E, N^1-dodecyl-N^3,N^3-dimethylpropane-1,3-diamine]
